Laboratory results taken from EP1738740A2, “Use of benzyl-1,3-thiazolidine-2,4-dione compounds for favouring and/or inducing and/or stimulating the pigmentation of keratinic materials and/or for limiting their depigmentation and/or their bleaching” (L'Oreal, priority 2005, dated 2007).
pIC50: −log10 of the molar value.

Target: T1, 15-PGDH de type 1 (Homo sapiens, UniProt P15428)
T1 sequence (P15428 1-266): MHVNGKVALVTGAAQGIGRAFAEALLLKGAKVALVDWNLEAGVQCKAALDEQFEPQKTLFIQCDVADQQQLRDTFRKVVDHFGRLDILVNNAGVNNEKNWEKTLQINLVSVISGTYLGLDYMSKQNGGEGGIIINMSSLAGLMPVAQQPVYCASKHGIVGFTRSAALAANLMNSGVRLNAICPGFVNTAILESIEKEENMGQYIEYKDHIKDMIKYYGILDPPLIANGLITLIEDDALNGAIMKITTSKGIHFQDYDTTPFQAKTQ
Assay: Test on 15-PGDH type 1: spectrophotometric enzyme inhibition, NADH formation at 340 nm with PGE2 and β-NAD
Format: biochemical
Conditions: concentration reducing the enzymatic activity of 15-PGDH by 50%; Tris 100 mM pH 7,4, 37°C, 50 µM Prostaglandine E2, 1,5 mM β-NAD
Experimental: L'enzyme 15-PGDH est obtenue comme décrit dans la demande FR 02/05067 déposée au nom de L'Oréal, en suspension dans un milieu adapté à une concentration de 0,3 mg/mL puis bloquée à - 80°C. Pour les besoins du test, cette suspension est décongelée et stockée dans de la glace.
Par ailleurs on prépare un tampon Tris 100 mM, pH = 7,4, contenant 0,1 mM de dithiothréitol (D5545, Sigma-Aldrich, L'isle D'Abeau Chesne, BP 701, 38297, Saint Quentin Fallavier), 1,5 mM de β-NAD (N6522, Sigma-Aldrich, L'isle D'Abeau Chesne, BP 701, 38297, Saint Quentin Fallavier), 50 µM de Prostaglandine E2 (P4172, Sigma-Aldrich, L'isle D'Abeau Chesne, BP 701, 38297, Saint Quentin Fallavier).
Dans la cuve d'un spectrophotomètre (Perkin-Elmer, Lambda 2) thermostaté à 37°C, dont la longueur d'onde de mesure est réglée à 340 nm, sont introduits 0,965 ml de ce tampon (préalablement porté à 37°C). 0,035 mL de suspension enzymatique à 37°C sont introduits dans la cuve concomitamment à l'enregistrement (correspondant à une augmentation de la densité optique à 340 nm). La vitesse maximale de réaction est relevée. […]

Compound `O=C1NC(=O)C(Cc2ccccc2Oc2ccc(Cl)cc2)S1` (stereo not shown) [compound 1] has a pIC50 of 5.66.
